Legend:
Type in all cases: biochemical
LCK = LCK (Homo sapiens (Human), UniProt P06239); assay: Kinase profiling service (Reaction Biology Corp.); conditions: compound 10 μM
Protocol: (§1) An inhibitory activity of the compound (10 μM) of Example 34 against various protein kinases was measured by means of a kinase profiling service (ICso profiler express) of Reaction Biology Corp., wherein ICso, a concentration at which JNK enzyme activity was inhibited 50%, was also measured by sequentially reducing a concentration of the compound.

ROS/ROS1 = ROS/ROS1 (Homo sapiens (Human), UniProt P08922); assay: Kinase profiling service (Reaction Biology Corp.); conditions: compound 10 μM
Protocol: as §1

ERK2/MAPK1 = ERK2/MAPK1 (Homo sapiens (Human), UniProt P28482); assay: Kinase profiling service (Reaction Biology Corp.); conditions: compound 10 μM
Chain of ERK2/MAPK1 (P28482 whole entry): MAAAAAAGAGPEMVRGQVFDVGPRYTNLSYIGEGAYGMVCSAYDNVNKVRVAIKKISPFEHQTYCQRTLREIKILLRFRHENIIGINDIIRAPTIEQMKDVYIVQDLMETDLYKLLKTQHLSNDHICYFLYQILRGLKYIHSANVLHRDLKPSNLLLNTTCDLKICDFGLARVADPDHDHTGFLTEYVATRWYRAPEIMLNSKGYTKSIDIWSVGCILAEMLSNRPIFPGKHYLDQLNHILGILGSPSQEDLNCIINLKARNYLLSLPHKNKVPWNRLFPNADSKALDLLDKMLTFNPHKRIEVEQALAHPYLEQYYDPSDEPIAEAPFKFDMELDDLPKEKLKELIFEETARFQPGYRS
Protocol: as §1

JNK1 = JNK1 (Homo sapiens (Human), UniProt P45983); assay: Kinase profiling service (Reaction Biology Corp.); conditions: compound 10 μM
Protocol: as §1

PLK1 = PLK1 (Homo sapiens (Human), UniProt P53350); assay: Kinase profiling service (Reaction Biology Corp.); conditions: compound 10 μM
Protocol: as §1

c-Src = c-Src (Homo sapiens (Human), UniProt P12931); assay: Kinase profiling service (Reaction Biology Corp.); conditions: compound 10 μM
Protocol: as §1

LYN = LYN (Homo sapiens (Human), UniProt P07948); assay: Kinase profiling service (Reaction Biology Corp.); conditions: compound 10 μM
Protocol: as §1

Aurora A = Aurora A (Homo sapiens (Human), UniProt O14965); assay: Kinase profiling service (Reaction Biology Corp.); conditions: compound 10 μM
Chain of Aurora A (O14965 whole entry): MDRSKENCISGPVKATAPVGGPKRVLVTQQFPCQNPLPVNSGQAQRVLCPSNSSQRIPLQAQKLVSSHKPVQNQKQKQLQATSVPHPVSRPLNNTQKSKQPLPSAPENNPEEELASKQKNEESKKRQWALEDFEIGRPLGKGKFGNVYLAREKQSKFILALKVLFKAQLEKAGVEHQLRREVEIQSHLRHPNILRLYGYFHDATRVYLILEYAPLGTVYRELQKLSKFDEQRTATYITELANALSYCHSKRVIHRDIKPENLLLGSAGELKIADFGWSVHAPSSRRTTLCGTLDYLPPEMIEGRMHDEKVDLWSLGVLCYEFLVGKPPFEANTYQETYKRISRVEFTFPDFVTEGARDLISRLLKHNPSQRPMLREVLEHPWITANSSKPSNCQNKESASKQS
Protocol: as §1

SYK = SYK (Homo sapiens (Human), UniProt P43405); assay: Kinase profiling service (Reaction Biology Corp.); conditions: compound 10 μM
Protocol: as §1

AKT1 = AKT1 (Homo sapiens (Human), UniProt P31749); assay: Kinase profiling service (Reaction Biology Corp.); conditions: compound 10 μM
Protocol: as §1

c-MET = c-MET (Homo sapiens (Human), UniProt P08581); assay: Kinase profiling service (Reaction Biology Corp.); conditions: compound 10 μM
Protocol: as §1

IGF1R = IGF1R (Homo sapiens (Human), UniProt P08069); assay: Kinase profiling service (Reaction Biology Corp.); conditions: compound 10 μM
Protocol: as §1

mTOR/FRAP1 = mTOR/FRAP1 (Homo sapiens (Human), UniProt P42345); assay: Kinase profiling service (Reaction Biology Corp.); conditions: compound 10 μM
Protocol: as §1

JAK3 = JAK3 (Homo sapiens (Human), UniProt P52333); assay: Kinase profiling service (Reaction Biology Corp.); conditions: compound 10 μM
Chain of JAK3 (P52333 whole entry): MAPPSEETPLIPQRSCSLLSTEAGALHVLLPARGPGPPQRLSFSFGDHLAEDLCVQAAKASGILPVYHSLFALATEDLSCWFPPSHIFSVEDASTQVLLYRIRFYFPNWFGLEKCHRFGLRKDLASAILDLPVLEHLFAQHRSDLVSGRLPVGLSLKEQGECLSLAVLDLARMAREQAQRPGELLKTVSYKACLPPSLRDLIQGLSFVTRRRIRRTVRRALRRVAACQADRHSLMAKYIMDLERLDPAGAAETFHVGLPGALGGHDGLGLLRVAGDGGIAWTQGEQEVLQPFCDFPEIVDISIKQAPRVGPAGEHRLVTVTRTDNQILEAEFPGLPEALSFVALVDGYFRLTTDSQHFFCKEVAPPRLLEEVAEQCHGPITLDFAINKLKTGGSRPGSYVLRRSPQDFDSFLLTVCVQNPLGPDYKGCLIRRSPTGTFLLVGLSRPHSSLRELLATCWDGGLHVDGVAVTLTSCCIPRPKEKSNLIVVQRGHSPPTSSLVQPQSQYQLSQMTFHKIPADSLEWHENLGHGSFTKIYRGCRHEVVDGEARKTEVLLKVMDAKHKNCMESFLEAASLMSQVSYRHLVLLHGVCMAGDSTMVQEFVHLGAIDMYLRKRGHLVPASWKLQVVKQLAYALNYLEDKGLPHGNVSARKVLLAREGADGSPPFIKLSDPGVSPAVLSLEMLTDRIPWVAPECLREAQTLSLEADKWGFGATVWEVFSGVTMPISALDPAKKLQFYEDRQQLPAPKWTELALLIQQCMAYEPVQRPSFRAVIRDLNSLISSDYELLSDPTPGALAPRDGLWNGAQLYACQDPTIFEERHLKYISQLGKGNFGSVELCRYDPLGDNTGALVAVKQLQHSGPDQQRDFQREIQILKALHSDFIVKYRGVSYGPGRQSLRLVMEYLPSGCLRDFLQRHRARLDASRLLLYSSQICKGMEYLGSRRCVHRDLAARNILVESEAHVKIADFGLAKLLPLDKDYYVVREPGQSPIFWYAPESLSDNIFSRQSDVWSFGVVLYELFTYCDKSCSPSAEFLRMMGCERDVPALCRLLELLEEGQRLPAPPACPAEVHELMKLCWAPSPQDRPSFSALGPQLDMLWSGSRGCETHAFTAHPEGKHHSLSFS
Protocol: as §1

GSK3b = GSK3b (Homo sapiens (Human), UniProt P49841); assay: Kinase profiling service (Reaction Biology Corp.); conditions: compound 10 μM
Chain of GSK3b (P49841 whole entry): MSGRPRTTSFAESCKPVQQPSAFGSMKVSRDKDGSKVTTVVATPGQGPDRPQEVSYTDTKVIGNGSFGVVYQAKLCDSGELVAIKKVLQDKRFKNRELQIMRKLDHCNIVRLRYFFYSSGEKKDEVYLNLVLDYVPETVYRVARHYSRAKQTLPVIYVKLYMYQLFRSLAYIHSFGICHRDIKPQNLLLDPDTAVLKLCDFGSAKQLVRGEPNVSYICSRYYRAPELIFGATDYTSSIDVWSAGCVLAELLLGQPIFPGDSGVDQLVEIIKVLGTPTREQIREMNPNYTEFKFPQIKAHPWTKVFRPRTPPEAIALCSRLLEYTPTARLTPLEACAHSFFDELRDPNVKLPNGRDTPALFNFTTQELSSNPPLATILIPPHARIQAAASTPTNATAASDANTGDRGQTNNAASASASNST
Protocol: as §1

MLK1/MAP3K9 = MLK1/MAP3K9 (Homo sapiens (Human), UniProt P80192); assay: Kinase profiling service (Reaction Biology Corp.); conditions: compound 10 μM
Protocol: as §1

FMS = FMS (Homo sapiens (Human), UniProt P07333); assay: Kinase profiling service (Reaction Biology Corp.); conditions: compound 10 μM
Chain of FMS (P07333 20-972): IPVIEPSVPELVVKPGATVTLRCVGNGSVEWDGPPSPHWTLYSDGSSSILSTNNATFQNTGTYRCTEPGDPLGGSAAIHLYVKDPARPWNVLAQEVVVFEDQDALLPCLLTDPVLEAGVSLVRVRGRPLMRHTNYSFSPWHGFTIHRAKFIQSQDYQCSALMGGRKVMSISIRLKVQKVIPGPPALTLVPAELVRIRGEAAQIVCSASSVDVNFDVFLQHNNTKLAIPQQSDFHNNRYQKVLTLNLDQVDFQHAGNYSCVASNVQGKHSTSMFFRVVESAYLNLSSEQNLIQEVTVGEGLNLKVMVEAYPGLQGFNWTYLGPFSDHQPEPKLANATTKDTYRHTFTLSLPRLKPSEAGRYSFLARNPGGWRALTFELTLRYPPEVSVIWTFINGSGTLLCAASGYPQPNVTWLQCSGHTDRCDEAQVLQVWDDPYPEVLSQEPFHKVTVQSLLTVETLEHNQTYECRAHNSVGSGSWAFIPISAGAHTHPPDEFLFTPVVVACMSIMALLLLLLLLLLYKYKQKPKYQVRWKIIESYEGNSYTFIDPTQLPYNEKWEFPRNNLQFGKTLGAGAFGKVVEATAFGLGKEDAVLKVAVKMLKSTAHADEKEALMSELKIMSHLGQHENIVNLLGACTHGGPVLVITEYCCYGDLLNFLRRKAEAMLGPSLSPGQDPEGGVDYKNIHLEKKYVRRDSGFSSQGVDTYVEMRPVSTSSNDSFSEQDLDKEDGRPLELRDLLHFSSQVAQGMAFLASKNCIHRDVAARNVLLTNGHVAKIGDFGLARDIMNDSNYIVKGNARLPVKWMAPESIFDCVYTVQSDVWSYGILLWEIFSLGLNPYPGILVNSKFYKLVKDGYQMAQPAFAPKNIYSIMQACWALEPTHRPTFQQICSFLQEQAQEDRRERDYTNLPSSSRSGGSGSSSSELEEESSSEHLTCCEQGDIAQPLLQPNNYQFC
Protocol: as §1

MEK1 = MEK1 (Homo sapiens (Human), UniProt Q02750); assay: Kinase profiling service (Reaction Biology Corp.); conditions: compound 10 μM
Chain of MEK1 (Q02750 whole entry): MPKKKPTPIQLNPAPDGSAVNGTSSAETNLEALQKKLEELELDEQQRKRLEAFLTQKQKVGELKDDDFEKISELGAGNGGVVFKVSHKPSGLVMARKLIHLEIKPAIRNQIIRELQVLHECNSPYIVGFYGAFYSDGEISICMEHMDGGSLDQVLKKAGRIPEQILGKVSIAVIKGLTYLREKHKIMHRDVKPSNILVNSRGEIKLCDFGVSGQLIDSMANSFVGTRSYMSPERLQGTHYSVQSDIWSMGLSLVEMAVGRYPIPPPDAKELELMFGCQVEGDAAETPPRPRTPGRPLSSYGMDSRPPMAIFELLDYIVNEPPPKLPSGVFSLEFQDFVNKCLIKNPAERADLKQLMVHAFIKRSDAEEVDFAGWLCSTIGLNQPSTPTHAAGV
Protocol: as §1

PKA = PKA (Homo sapiens (Human), UniProt P17612); assay: Kinase profiling service (Reaction Biology Corp.); conditions: compound 10 μM
Protocol: as §1

ALK = ALK (Homo sapiens (Human), UniProt Q9UM73); assay: Kinase profiling service (Reaction Biology Corp.); conditions: compound 10 μM
Protocol: as §1

CDK2/cyclin E = CDK2/cyclin E (Homo sapiens (Human), UniProt P24941); assay: Kinase profiling service (Reaction Biology Corp.); conditions: compound 10 μM
Protocol: as §1

FGFR3 = FGFR3 (Homo sapiens (Human), UniProt P22607); assay: Kinase profiling service (Reaction Biology Corp.); conditions: compound 10 μM
Chain of FGFR3 (P22607 23-806): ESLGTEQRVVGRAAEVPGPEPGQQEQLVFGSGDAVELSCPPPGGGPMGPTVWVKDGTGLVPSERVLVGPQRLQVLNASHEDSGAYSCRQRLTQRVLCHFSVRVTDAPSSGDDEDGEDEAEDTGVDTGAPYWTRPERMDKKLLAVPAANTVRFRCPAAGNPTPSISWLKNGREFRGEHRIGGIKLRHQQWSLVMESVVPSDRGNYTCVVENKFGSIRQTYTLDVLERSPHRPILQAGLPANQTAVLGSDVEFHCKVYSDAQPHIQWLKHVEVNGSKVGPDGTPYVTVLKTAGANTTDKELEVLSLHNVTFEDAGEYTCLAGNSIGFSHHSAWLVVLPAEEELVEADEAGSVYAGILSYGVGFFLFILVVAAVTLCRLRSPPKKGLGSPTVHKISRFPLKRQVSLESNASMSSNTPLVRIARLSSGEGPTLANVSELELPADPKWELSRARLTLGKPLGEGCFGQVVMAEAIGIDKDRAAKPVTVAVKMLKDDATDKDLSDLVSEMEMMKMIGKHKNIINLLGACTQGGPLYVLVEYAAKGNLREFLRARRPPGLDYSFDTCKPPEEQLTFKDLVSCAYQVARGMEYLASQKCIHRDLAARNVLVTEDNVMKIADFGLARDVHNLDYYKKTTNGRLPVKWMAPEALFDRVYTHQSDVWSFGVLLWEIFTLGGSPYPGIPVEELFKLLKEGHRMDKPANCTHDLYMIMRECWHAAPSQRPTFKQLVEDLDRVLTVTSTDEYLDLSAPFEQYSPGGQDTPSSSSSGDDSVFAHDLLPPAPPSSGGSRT
Protocol: as §1

c-Kit = c-Kit (Homo sapiens (Human), UniProt P10721); assay: Kinase profiling service (Reaction Biology Corp.); conditions: compound 10 μM
Protocol: as §1

FYN = FYN (Homo sapiens (Human), UniProt P06241); assay: Kinase profiling service (Reaction Biology Corp.); conditions: compound 10 μM
Chain of FYN (P06241 whole entry): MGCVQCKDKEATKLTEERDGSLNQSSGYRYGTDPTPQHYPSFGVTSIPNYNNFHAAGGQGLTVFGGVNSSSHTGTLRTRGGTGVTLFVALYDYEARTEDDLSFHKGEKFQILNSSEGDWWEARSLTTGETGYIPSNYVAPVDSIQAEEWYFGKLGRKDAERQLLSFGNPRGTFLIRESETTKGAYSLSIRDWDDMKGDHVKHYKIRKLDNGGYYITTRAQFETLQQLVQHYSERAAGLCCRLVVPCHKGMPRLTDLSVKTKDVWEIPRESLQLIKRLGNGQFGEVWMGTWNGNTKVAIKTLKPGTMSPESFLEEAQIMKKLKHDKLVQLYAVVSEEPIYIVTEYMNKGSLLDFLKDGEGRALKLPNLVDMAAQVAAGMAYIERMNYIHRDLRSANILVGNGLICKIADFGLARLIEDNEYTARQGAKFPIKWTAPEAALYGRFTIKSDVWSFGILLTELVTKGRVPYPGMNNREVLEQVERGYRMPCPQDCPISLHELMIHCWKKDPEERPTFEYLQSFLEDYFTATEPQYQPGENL
Protocol: as §1

FLT3 = FLT3 (Homo sapiens (Human), UniProt P36888); assay: Kinase profiling service (Reaction Biology Corp.); conditions: compound 10 μM
Protocol: as §1

JNK3 = JNK3 (Homo sapiens (Human), UniProt P53779); assay: Measurement of JNK3 enzyme activity (33P-ATP filter-binding); conditions: human JNK3, ATP 10 μM, ATF2 3 μM
Protocol: The changes in JNK3 enzyme activity resulting from being treated with the inventive imidazole derivative (Formula 1) shown in a following Table 1 were identified through IC50.
First of all, after a substrate was inserted into a prepared base reaction buffer solution (20 mM Hepes ([…]), 10 mM MgCl2, 1 mM EGTA, 0.02% Brij35, 0.02 mg/ml BSA, 0.1 mM Na3VO4, 2 mM DTT, 1% DMSO), a human JNK3 enzyme was added into a prepared substrate solution and then mixed together. As the substrate, ATP (10 μM) and ATF2 (3 μM) were used, among which the ATP was also used as a common substrate. Then, compounds of Examples 1-18 and 25-36, which were dissolved in 100% DMSO, were inserted into an enzyme reaction solution, and then cultured at room temperature for 20 minutes. Then, ^33P-ATP was inserted into the above reaction mixture solution to initiate a reaction, then cultured at room temperature for 2 hours, and then an enzyme activity was detected by means of a filter-binding method.
Particularly, after each 25 μl of the resulting solution was slowly spotted on P81 paper, it was inserted into a scintillation vial, and washed with 0.75% phosphoric acid four times for 10 minutes each, and with acetone once for 5 minutes. 5 ml of scintillation cocktail was inserted into the above scintillation vial and a resulting signal was read by means of a scintillation counter.
IC50 values of compounds of Examples 1-18 and 25-36 with regard to JNK3 enzyme activity were shown in a following Table 2.

[1] = Data 1 and Data 2, read-out: % Enzyme Activity (relative to DMSO controls)

For `N#CCc1cnc(-c2ccc3ccccc3c2)n1-c1ccnc(NC2CCCN(C(=O)C3CC3)C2)n1` (stereo not drawn) [Example 34, 2-(1-(2-(1-(cyclopropanecarbonyl)piperidine-3-ylamino)pyrimidine-4-yl)-2-(naphthalene-2-yl)-1H-imidazole-5-yl)acetonitrile], the “% Enzyme Activity (relative to DMSO controls)” value (LCK; Data 1 and Data 2) was 95.50%, the remaining activity at 10 µM (LCK; [1]) was 95.8% and the “% Enzyme Activity (relative to DMSO controls)” value (ROS/ROS1; Data 1 and Data 2) was 95.23%. For the same molecule, the remaining activity at 10 µM (ROS/ROS1; [1]) was 97.8%, the “% Enzyme Activity (relative to DMSO controls)” value (ERK2/MAPK1; Data 1 and Data 2) was 97.70% and the remaining activity at 10 µM (ERK2/MAPK1; [1]) was 98%. The “% Enzyme Activity (relative to DMSO controls)” value (JNK1; Data 1 and Data 2) was 2.84%, the remaining activity at 10 µM (JNK1; [1]) was 3.04% and the “% Enzyme Activity (relative to DMSO controls)” value (PLK1; Data 1 and Data 2) was 97.02%. For the same molecule, the remaining activity at 10 µM (PLK1; [1]) was 98.8%, the “% Enzyme Activity (relative to DMSO controls)” value (c-Src; Data 1 and Data 2) was 92.54% and the remaining activity at 10 µM (c-Src; [1]) was 94%. For the same molecule, the “% Enzyme Activity (relative to DMSO controls)” value (LYN; Data 1 and Data 2) was 85.66%, the remaining activity at 10 µM (LYN; [1]) was 86.6% and the “% Enzyme Activity (relative to DMSO controls)” value (Aurora A; Data 1 and Data 2) was 101.98%. The remaining activity at 10 µM (Aurora A; [1]) was 102%, the “% Enzyme Activity (relative to DMSO controls)” value (SYK; Data 1 and Data 2) was 97.43% and the remaining activity at 10 µM (SYK; [1]) was 98.1%. The “% Enzyme Activity (relative to DMSO controls)” value (AKT1; Data 1 and Data 2) was 99.04%, the remaining activity at 10 µM (AKT1; [1]) was 103% and the “% Enzyme Activity (relative to DMSO controls)” value (c-MET; Data 1 and Data 2) was 90.72%. For the same molecule, the remaining activity at 10 µM (c-MET; [1]) was 105%, the “% Enzyme Activity (relative to DMSO controls)” value (IGF1R; Data 1 and Data 2) was 92.45% and the remaining activity at 10 µM (IGF1R; [1]) was 93.1%. For the same molecule, the “% Enzyme Activity (relative to DMSO controls)” value (mTOR/FRAP1; Data 1 and Data 2) was 101.65%, the remaining activity at 10 µM (mTOR/FRAP1; [1]) was 105% and the “% Enzyme Activity (relative to DMSO controls)” value (JAK3; Data 1 and Data 2) was 99.82%. For the same molecule, the remaining activity at 10 µM (JAK3; [1]) was 101%, the “% Enzyme Activity (relative to DMSO controls)” value (GSK3b; Data 1 and Data 2) was 29.80% and the remaining activity at 10 µM (GSK3b; [1]) was 29.9%. For the same molecule, the “% Enzyme Activity (relative to DMSO controls)” value (MLK1/MAP3K9; Data 1 and Data 2) was 93.90%, the remaining activity at 10 µM (MLK1/MAP3K9; [1]) was 95.7% and the “% Enzyme Activity (relative to DMSO controls)” value (FMS; Data 1 and Data 2) was 93.11%. The remaining activity at 10 µM (FMS; [1]) was 93.7%, the “% Enzyme Activity (relative to DMSO controls)” value (MEK1; Data 1 and Data 2) was 104.84% and the remaining activity at 10 µM (MEK1; [1]) was 105%. For the same molecule, the “% Enzyme Activity (relative to DMSO controls)” value (PKA; Data 1 and Data 2) was 96.45%, the remaining activity at 10 µM (PKA; [1]) was 97.3% and the “% Enzyme Activity (relative to DMSO controls)” value (ALK; Data 1 and Data 2) was 97.85%. The remaining activity at 10 µM (ALK; [1]) was 98%, the “% Enzyme Activity (relative to DMSO controls)” value (CDK2/cyclin E; Data 1 and Data 2) was 95.83% and the remaining activity at 10 µM (CDK2/cyclin E; [1]) was 97.5%. For the same molecule, the “% Enzyme Activity (relative to DMSO controls)” value (FGFR3; Data 1 and Data 2) was 91.29%, the remaining activity at 10 µM (FGFR3; [1]) was 91.4% and the “% Enzyme Activity (relative to DMSO controls)” value (c-Kit; Data 1 and Data 2) was 92.65%. For the same molecule, the remaining activity at 10 µM (c-Kit; [1]) was 93.4%, the “% Enzyme Activity (relative to DMSO controls)” value (FYN; Data 1 and Data 2) was 94.86% and the remaining activity at 10 µM (FYN; [1]) was 95.6%. For the same molecule, the “% Enzyme Activity (relative to DMSO controls)” value (FLT3; Data 1 and Data 2) was 96.52%, the remaining activity at 10 µM (FLT3; [1]) was 98.7% and the IC50 (JNK3) was < 30 nM.

Reference: patent US10301291B2, “Imidazole derivative having JNK inhibitory activity and use thereof” (SAMJIN PHARMACEUTICAL CO., LTD., priority 2016, dated 2019)
